Details: Fluid (supercritical or subcritical phases), Vibrating wire viscometry

N#N [nitrogen]
Details	viscosity [mPa·s]
298.15 K, 100 kPa	0.01778
298.15 K, 150 kPa	0.01779
298.15 K, 200 kPa	0.01781
298.15 K, 250 kPa	0.01782
298.15 K, 300.1 kPa	0.01782
298.15 K, 350.1 kPa	0.01784
298.15 K, 400 kPa	0.01784
298.15 K, 450.1 kPa	0.01784
298.15 K, 500.1 kPa	0.01785
298.15 K, 600.1 kPa	0.01786
298.15 K, 700.1 kPa	0.01787
298.15 K, 800.1 kPa	0.01789
298.15 K, 900.1 kPa	0.0179
298.15 K, 1000.2 kPa	0.01792
298.15 K, 1100.2 kPa	0.01793
298.15 K, 1200.1 kPa	0.01795
298.15 K, 1300.1 kPa	0.01796
298.15 K, 1400.1 kPa	0.01797
298.15 K, 1500.1 kPa	0.01798
298.15 K, 1599.9 kPa	0.018
298.15 K, 1700 kPa	0.01801
298.15 K, 1800.1 kPa	0.01803
298.15 K, 1899.9 kPa	0.01805
298.15 K, 2000.4 kPa	0.01806
298.15 K, 2250 kPa	0.0181
298.15 K, 2500.3 kPa	0.01815
298.15 K, 2750.4 kPa	0.01818
298.15 K, 3000.9 kPa	0.01822
298.15 K, 3250.3 kPa	0.01825
298.15 K, 3500.7 kPa	0.01831
298.15 K, 3750.7 kPa	0.01835
298.15 K, 4001 kPa	0.01841
298.15 K, 4250.5 kPa	0.01846
298.15 K, 4499.8 kPa	0.01851
298.15 K, 4749.9 kPa	0.01858
298.15 K, 5000.5 kPa	0.01861
298.15 K, 5500.9 kPa	0.01872
298.15 K, 6005.4 kPa	0.01884
298.15 K, 6500.4 kPa	0.01897
298.15 K, 7002.5 kPa	0.01909
298.15 K, 7501.6 kPa	0.01921
298.15 K, 8000.9 kPa	0.01934
298.15 K, 8500.9 kPa	0.01947
298.15 K, 8999.3 kPa	0.01961
298.15 K, 9499.4 kPa	0.01973
298.15 K, 10001 kPa	0.01988
298.15 K, 11005 kPa	0.02018
298.15 K, 12002 kPa	0.02047
298.15 K, 13004 kPa	0.02079
298.15 K, 14004 kPa	0.0211
298.15 K, 15006 kPa	0.02142
298.15 K, 16001 kPa	0.02176
298.15 K, 17010 kPa	0.02211
298.15 K, 18008 kPa	0.02247
298.15 K, 19006 kPa	0.02284
298.15 K, 20005 kPa	0.02318
298.15 K, 21000 kPa	0.02354
298.15 K, 22001 kPa	0.02391
298.15 K, 23008 kPa	0.02429
298.15 K, 24003 kPa	0.02466
298.15 K, 25014 kPa	0.02503
298.15 K, 26005 kPa	0.02541
298.15 K, 27010 kPa	0.02581
298.15 K, 28009 kPa	0.0262
298.15 K, 29013 kPa	0.02657
298.15 K, 30010 kPa	0.02695
298.15 K, 31009 kPa	0.02735
298.15 K, 31995 kPa	0.02774
298.15 K, 33004 kPa	0.02814
298.15 K, 33949 kPa	0.02852
298.15 K, 35027 kPa	0.02893
323.15 K, 100 kPa	0.0189
323.15 K, 200.1 kPa	0.01893
323.15 K, 300.1 kPa	0.01895
323.15 K, 400.1 kPa	0.01896
323.15 K, 600.1 kPa	0.01898
323.15 K, 800.3 kPa	0.019
323.15 K, 1000.6 kPa	0.01903
323.15 K, 1500.7 kPa	0.0191
323.15 K, 2000.7 kPa	0.01917
323.15 K, 2500.9 kPa	0.01924
323.15 K, 3000.8 kPa	0.01932
323.15 K, 3502.6 kPa	0.0194
323.15 K, 4001.8 kPa	0.01948
323.15 K, 4500.4 kPa	0.01957
323.15 K, 5002.2 kPa	0.01965
323.15 K, 5503.9 kPa	0.01976
323.15 K, 6003.6 kPa	0.01983
323.15 K, 6503.6 kPa	0.01994
323.15 K, 7009.3 kPa	0.02005
323.15 K, 7502.7 kPa	0.02015
323.15 K, 8003.1 kPa	0.02027
323.15 K, 8504.2 kPa	0.02038
323.15 K, 9006.1 kPa	0.0205
323.15 K, 9500.4 kPa	0.02062
323.15 K, 10007 kPa	0.02073
323.15 K, 11007 kPa	0.02098
323.15 K, 12006 kPa	0.02124
323.15 K, 13005 kPa	0.02151
323.15 K, 14005 kPa	0.02176
323.15 K, 15005 kPa	0.02205
323.15 K, 16009 kPa	0.02233
323.15 K, 17007 kPa	0.02262
323.15 K, 18000 kPa	0.02292
323.15 K, 19007 kPa	0.02323
323.15 K, 19999 kPa	0.02354
323.15 K, 21010 kPa	0.02383
323.15 K, 22011 kPa	0.02417
323.15 K, 23013 kPa	0.02451
323.15 K, 24004 kPa	0.02481
323.15 K, 25005 kPa	0.02511
323.15 K, 26011 kPa	0.02547
323.15 K, 27000 kPa	0.02579
323.15 K, 28012 kPa	0.02613
323.15 K, 29014 kPa	0.02646
323.15 K, 30014 kPa	0.02677
323.15 K, 31013 kPa	0.02714
323.15 K, 31997 kPa	0.02746
323.15 K, 33007 kPa	0.02781
323.15 K, 34009 kPa	0.02814
323.15 K, 35066 kPa	0.02852
348.15 K, 100.1 kPa	0.02
348.15 K, 200.1 kPa	0.02003
348.15 K, 300.1 kPa	0.02004
348.15 K, 400.2 kPa	0.02005
348.15 K, 600.5 kPa	0.02007
348.15 K, 800.6 kPa	0.02009
348.15 K, 1000.9 kPa	0.02011
348.15 K, 1501.9 kPa	0.02017
348.15 K, 2001.6 kPa	0.02023
348.15 K, 2502 kPa	0.0203
348.15 K, 3002.6 kPa	0.02037
348.15 K, 3504.2 kPa	0.02044
348.15 K, 3999.6 kPa	0.02051
348.15 K, 4508.2 kPa	0.02058
348.15 K, 5002.2 kPa	0.02066
348.15 K, 5502.8 kPa	0.02074
348.15 K, 6003.4 kPa	0.02084
348.15 K, 6501.3 kPa	0.02092
348.15 K, 7002.3 kPa	0.02101
348.15 K, 7502.5 kPa	0.0211
348.15 K, 8002.1 kPa	0.0212
348.15 K, 8501.8 kPa	0.02129
348.15 K, 9004 kPa	0.02139
348.15 K, 9498.9 kPa	0.0215
348.15 K, 10001 kPa	0.02161
348.15 K, 11007 kPa	0.02182
348.15 K, 12007 kPa	0.02203
348.15 K, 13006 kPa	0.02227
348.15 K, 14001 kPa	0.0225
348.15 K, 15011 kPa	0.02274
348.15 K, 16001 kPa	0.02299
348.15 K, 17002 kPa	0.02326
348.15 K, 18004 kPa	0.02351
348.15 K, 19008 kPa	0.02378
348.15 K, 20006 kPa	0.02404
348.15 K, 21004 kPa	0.02431
348.15 K, 22011 kPa	0.02458
348.15 K, 23006 kPa	0.02486
348.15 K, 24004 kPa	0.02515

From the NIST ThermoML archive (doi:10.1021/je050399c)
